PMC6271077, “Synthesis, Anticancer and Antibacterial Activity of Salinomycin N-Benzyl Amides” (Molecules, 2014)
In brackets after ≈: the same amount, converted by molar mass.

Key:
MRSA 456/11 = assay: MIC microdilution, hospital MRSA; format: cell-based; conditions: Staphylococcus aureus; hospital MRSA strain 456/11; read-out: MIC
MRSA 514/11 = assay: MIC microdilution, hospital MRSA; format: cell-based; conditions: Staphylococcus aureus; hospital MRSA strain 514/11; read-out: MIC
MRSE 459/11 = assay: MIC microdilution, hospital MRSE; format: cell-based; conditions: Staphylococcus epidermidis; hospital MRSE strain 459/11; read-out: MIC
MRSA 452/11 = assay: MIC microdilution, hospital MRSA; format: cell-based; conditions: Staphylococcus aureus; hospital MRSA strain 452/11; read-out: MIC
S. aureus ATCC 4163 [1] = assay: MIC microdilution; format: cell-based; conditions: Staphylococcus aureus, ATCC4163; S. aureus ATCC 4163; 18 h, 35 °C; read-out: MIC
MRSA 462/11 = assay: MIC microdilution, hospital MRSA; format: cell-based; conditions: Staphylococcus aureus; hospital MRSA strain 462/11; read-out: MIC
MRSA 537/12 = assay: MIC microdilution, hospital MRSA; format: cell-based; conditions: Staphylococcus aureus; hospital MRSA strain 537/12; read-out: MIC
MRSE 467/11 = assay: MIC microdilution, hospital MRSE; format: cell-based; conditions: Staphylococcus epidermidis; hospital MRSE strain 467/11; read-out: MIC
MRSA 572/12 = assay: MIC microdilution, hospital MRSA; format: cell-based; conditions: Staphylococcus aureus; hospital MRSA strain 572/12; read-out: MIC
MRSE 488/11 = assay: MIC microdilution, hospital MRSE; format: cell-based; conditions: Staphylococcus epidermidis; hospital MRSE strain 488/11; read-out: MIC
MRSA = assay: MIC microdilution, MRSA strains overall (range given); format: cell-based, Staphylococcus aureus; conditions: hospital MRSA strains
MRSA 585/12 = assay: MIC microdilution, hospital MRSA; format: cell-based; conditions: Staphylococcus aureus; hospital MRSA strain 585/12; read-out: MIC
MRSA 586/12 = assay: MIC microdilution, hospital MRSA; format: cell-based; conditions: Staphylococcus aureus; hospital MRSA strain 586/12; read-out: MIC
MRSE 469/11 = assay: MIC microdilution, hospital MRSE; format: cell-based; conditions: Staphylococcus epidermidis; hospital MRSE strain 469/11; read-out: MIC
[2] = test system: S. epidermidis ATCC 12228; assay: MIC microdilution; format: cell-based; conditions: Staphylococcus epidermidis, ATCC12228; S. epidermidis ATCC 12228; 18 h, 35 °C; read-out: MIC
MRSE 489/11 = assay: MIC microdilution, hospital MRSE; format: cell-based; conditions: Staphylococcus epidermidis; hospital MRSE strain 489/11; read-out: MIC
MRSE 466/11 = assay: MIC microdilution, hospital MRSE; format: cell-based; conditions: Staphylococcus epidermidis; hospital MRSE strain 466/11; read-out: MIC
S. aureus ATCC 6538 [3] = assay: MIC microdilution; format: cell-based; conditions: Staphylococcus aureus, ATCC6538; S. aureus ATCC 6538; 18 h, 35 °C; read-out: MIC
[4] = test system: S. epidermidis ATCC 12228; assay: Disc-diffusion (GIZ); format: cell-based; conditions: 18 h, 35 °C, un: unmeasurable
Excerpt: (§1) Microorganisms used in this study were as follows: Gram-positive cocci: S. aureus NCTC 4163, S. aureus ATCC 25923, S. aureus ATCC 6538, S. aureus ATCC 29213, S. epidermidis ATCC 12228, S. epidermidis ATCC 35984, Gram-negative rods: E. coli ATCC 10538, E. coli ATCC 25922, E. coli NCTC 8196, P. vulgaris NCTC 4635, P. aeruginosa ATCC 15442, P. aeruginosa NCTC 6749, P. aeruginosa ATCC 27863, B. bronchiseptica ATCC 4617 and yeasts: C. albicans ATCC 10231, C. albicans ATCC 90028, C. parapsilosis ATCC 22019. The other microorganisms used were obtained from the collection of the Department of Pharmaceutical Microbiology, Medical University of Warsaw, Poland.
(§2) Antibacterial activity was examined by the disc-diffusion method under standard conditions using Mueller-Hinton II agar medium (Becton Dickinson, Heidelberg, Germany) according to CLSI (previously NCCLS) guidelines. Antifungal activities were assessed using Muellere Hinton agar + 2% glucose and 0.5 mg/mL Methylene Blue Dye Medium.
(§3) Sterile filter paper discs (9 mm diameter, Whatman No. 3 chromatography paper) were dripped with tested compound solutions (in EtOH) to load […] of a given compound per disc. Dry discs were placed on the surface of appropriate agar medium. The results (diameter of the growth inhibition zone, GIZ) were read after 18 h of incubation at 35 °C.

S. aureus ATCC 25923 = assay: Disc-diffusion (GIZ); format: cell-based; conditions: 18 h, 35 °C, un: unmeasurable
Excerpt: as §1, §2, §3

[5] = test system: S. epidermidis ATCC 35984; assay: Disc-diffusion (GIZ); format: cell-based; conditions: 18 h, 35 °C, un: unmeasurable
Excerpt: as §1, §2, §3

S. aureus ATCC 6538 [6] = assay: Disc-diffusion (GIZ); format: cell-based; conditions: 18 h, 35 °C, un: unmeasurable
Excerpt: as §1, §2, §3

S. aureus ATCC 29213 [7] = assay: Disc-diffusion (GIZ); format: cell-based; conditions: 18 h, 35 °C, un: unmeasurable
Excerpt: as §1, §2, §3

S. aureus ATCC 4163 [8] = assay: Disc-diffusion (GIZ); format: cell-based; conditions: 18 h, 35 °C, un: unmeasurable
Excerpt: as §1, §2, §3

MRSE 468/11 = assay: MIC microdilution, hospital MRSE; format: cell-based; conditions: Staphylococcus epidermidis; hospital MRSE strain 468/11; read-out: MIC
MRSE 461/11 = assay: MIC microdilution, hospital MRSE; format: cell-based; conditions: Staphylococcus epidermidis; hospital MRSE strain 461/11; read-out: MIC
MRSA 573/12 = assay: MIC microdilution, hospital MRSA; format: cell-based; conditions: Staphylococcus aureus; hospital MRSA strain 573/12; read-out: MIC
MRSA 522/12 = assay: MIC microdilution, hospital MRSA; format: cell-based; conditions: Staphylococcus aureus; hospital MRSA strain 522/12; read-out: MIC
S. aureus ATCC 29213 [9] = assay: MIC microdilution; format: cell-based; conditions: Staphylococcus aureus, ATCC29213; S. aureus ATCC 29213; 18 h, 35 °C; read-out: MIC

For `O=C(O)c1cn(C2CC2)c2cc(N3CCNCC3)c(F)cc2c1=O` [ciprofloxacin, reference compound], the MIC (MRSA 456/11) was 32 µg/mL (≈ 96.6 µM), the MIC (MRSA 514/11) was 32 µg/mL (≈ 96.6 µM) and the MIC (MRSE 459/11) was 16 µg/mL (≈ 48.3 µM). The MIC (MRSA 452/11) was 32 µg/mL (≈ 96.6 µM), the MIC (S. aureus ATCC 4163 [1]) was 0.25 µg/mL (≈ 0.754 µM) and the MIC (MRSA 462/11) was 64 µg/mL (≈ 193 µM). It also gave an MIC (MRSA 537/12) of 64 µg/mL (≈ 193 µM), an MIC (MRSE 467/11) of 16 µg/mL (≈ 48.3 µM) and an MIC (MRSA 572/12) of 64 µg/mL (≈ 193 µM). The MIC (MRSE 488/11) was 16 µg/mL (≈ 48.3 µM), the “MIC (range over MRSA strains)” value (MRSA) was 32 to 64 µg/mL and the MIC (MRSA 585/12) was 64 µg/mL (≈ 193 µM). The MIC (MRSA 586/12) was 64 µg/mL (≈ 193 µM), the MIC (MRSE 469/11) was 8 µg/mL (≈ 24.1 µM) and the MIC [2] was 0.25 µg/mL (≈ 0.754 µM). It also gave an MIC (MRSE 489/11) of 0.25 µg/mL (≈ 0.754 µM), an MIC (MRSE 466/11) of 2 µg/mL (≈ 6.04 µM) and an MIC (S. aureus ATCC 6538 [3]) of 0.25 µg/mL (≈ 0.754 µM). The GIZ [4] was 30 mm, the GIZ (S. aureus ATCC 25923) was 26 mm and the GIZ [5] was 32 mm. It also gave a GIZ (S. aureus ATCC 6538 [6]) of 28 mm, a GIZ (S. aureus ATCC 29213 [7]) of 22 mm and a GIZ (S. aureus ATCC 4163 [8]) of 26 mm. The MIC (MRSE 468/11) was 16 µg/mL (≈ 48.3 µM), the MIC (MRSE 461/11) was 0.25 µg/mL (≈ 0.754 µM) and the MIC (MRSA 573/12) was 32 µg/mL (≈ 96.6 µM). For the same compound, the MIC (MRSA 522/12) was 32 µg/mL (≈ 96.6 µM) and the MIC (S. aureus ATCC 29213 [9]) was 0.5 µg/mL (≈ 1.51 µM).
